# Tests used:
# [1] = test system: VEGFR2, cMet, PDGFRβ, and IGF1R; conditions: VEGFR2, c-Met, literature; cited from earlier work
# STAT3 = experiment: Western blot of MEC lysates: STAT3 phosphorylation; format: cell-based, human; conditions: Ang2 and AXT107 treatment
# Procedure: (§1) To investigate the effects of the integrin inhibitor AXT107 on Tie2 signaling, confluent monolayers of microvascular endothelial cells (MECs) on fibronectin-coated dishes were treated with various concentrations of AXT107 followed by exposure to the Tie2 ligands Ang1 or Ang2.
# (§2) Human dermal microvascular endothelial cells (Lonza) were maintained at 37° C. and 5% CO2 in EBM-2MV medium (Lonza) and used between passages two through seven. Where applicable, cells were serum starved in EBM-2 medium (Lonza) with no supplements. For FITC-Dextran permeability assays phenol red-free media were used to avoid auto-fluorescence. […]
# (§3) For Ang1/2 signaling investigations, cell culture dishes (10 cm diameter) were coated with 5 μg/ml fibronectin (FN1; Sigma-Aldrich, St. Louis, Mo.) for two hours at 37° C. […] Specific proteins were identified by Western blot, using the following primary antibodies: Cell Signaling—phospho-Tie2 (Y992) (Cat #: 4221), Tie2 (Cat #: 7403), phospho-Stat3 (Y705) (Cat #: 4113), Stat3 (Cat #: 4904), phospho-Akt (S473) (Cat #: 4058), Akt (Cat #: 9272), phospho-p44/42 MAPK (T202/Y204) (Cat #: 4370), p44/42 MAPK (Cat #: 4695); BD Transduction Laboratories—β1 integrin (Cat #: 610467); Millipore—α5 integrin (Cat #: AB1928) and detected with HRP-conjugated goat anti-rabbit and sheep anti-mouse secondary antibodies (GE healthcare).
# Erk1/2 = experiment: Western blot of MEC lysates: Erk1/2 phosphorylation; format: cell-based, human; conditions: all tested conditions
# Procedure: as §1, §2, §3
# α5β1 integrin = target: T1, α5β1 integrin (Homo sapiens, UniProt P05556+P08648); experiment: Immunoprecipitation of α5 integrin in Triton X-100 fractionated lysates, blotted for β1; format: cell-based; conditions: after AXT107 treatment; data not shown
# T1 construct: host or cells: human dermal microvascular endothelial cells (MECs)
# Excerpt: Since β1 integrin is the only known β subunit to heterodimerize with the α5 integrin subunit, it unlikely that the α5 subunit, that was observed here in the insoluble fractions, originated from a heterodimeric integrin pair other than α5β1. Unfortunately, high background impaired the visualization of α5 integrin alone by immunofluorescence. Given the unexpected discovery that AXT107 dissociates the integrin heterodimer, this discovery was confirmed in several independent assays. […] Thus, interactions between Tie2 and heterodimerized α5β1 integrin appear to retain Tie2 at the EC-ECM interface.
# The isolation of Triton X-100 soluble and insoluble fractions was performed using modifications to previously-described procedures (see, e.g., Lampugnani et al., J Cell Biol. 1995; 129(1):203-217). FN1-coated six-well plates were seeded with 2.5×10^6 cells and cultured for forty-eight hours, as described above. The cultures were then serum starved for ninety minutes in EBM-2 media, treated with 100 μM AXT107 or DMSO vehicle, and fifteen minutes with 1 mM sodium vanadate. The cells were then stimulated with either 100 ng/ml VEGFA, 400 ng/ml Ang2, or PBS for fifteen minutes. The plates were then transferred to ice and washed twice with cold dPBS containing Ca^2+ and Mg^2+ and twice with EBM-2 media. […] Samples were analyzed by western blot as described above. […]
# integrin α5β1 = integrin α5β1 (Homo sapiens, UniProt P05556+P08648); conditions: Lee et al. 2014; Lima et al. 2017; cited from earlier work
# Sequence of integrin α5β1 (P08648 42-1049): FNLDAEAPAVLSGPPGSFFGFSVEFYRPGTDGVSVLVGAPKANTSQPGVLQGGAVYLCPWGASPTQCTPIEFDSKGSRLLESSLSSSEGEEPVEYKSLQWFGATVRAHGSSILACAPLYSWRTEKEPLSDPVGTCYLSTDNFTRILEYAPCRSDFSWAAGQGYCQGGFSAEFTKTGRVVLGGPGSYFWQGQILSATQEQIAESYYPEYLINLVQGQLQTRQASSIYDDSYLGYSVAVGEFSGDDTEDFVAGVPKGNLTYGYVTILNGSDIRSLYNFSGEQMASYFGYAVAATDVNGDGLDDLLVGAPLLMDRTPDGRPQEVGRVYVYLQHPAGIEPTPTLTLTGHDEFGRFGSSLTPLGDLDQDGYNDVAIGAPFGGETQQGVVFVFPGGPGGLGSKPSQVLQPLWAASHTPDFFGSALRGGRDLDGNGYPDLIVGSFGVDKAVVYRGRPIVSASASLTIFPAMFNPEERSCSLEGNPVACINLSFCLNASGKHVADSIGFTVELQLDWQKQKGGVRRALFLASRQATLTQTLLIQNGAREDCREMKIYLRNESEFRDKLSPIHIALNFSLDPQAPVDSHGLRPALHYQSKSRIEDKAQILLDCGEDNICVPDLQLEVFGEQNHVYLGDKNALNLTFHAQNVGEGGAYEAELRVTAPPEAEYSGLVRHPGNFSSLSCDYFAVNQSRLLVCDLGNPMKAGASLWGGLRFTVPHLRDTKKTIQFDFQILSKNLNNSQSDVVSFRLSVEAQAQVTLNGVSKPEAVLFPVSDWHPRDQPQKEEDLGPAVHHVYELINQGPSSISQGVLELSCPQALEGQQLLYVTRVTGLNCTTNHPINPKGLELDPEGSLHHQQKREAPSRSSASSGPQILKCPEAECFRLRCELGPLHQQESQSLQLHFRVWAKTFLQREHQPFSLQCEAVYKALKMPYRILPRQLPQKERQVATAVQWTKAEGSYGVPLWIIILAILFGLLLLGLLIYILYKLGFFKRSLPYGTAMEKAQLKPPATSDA
# Sequence of integrin α5β1 (P05556 21-798): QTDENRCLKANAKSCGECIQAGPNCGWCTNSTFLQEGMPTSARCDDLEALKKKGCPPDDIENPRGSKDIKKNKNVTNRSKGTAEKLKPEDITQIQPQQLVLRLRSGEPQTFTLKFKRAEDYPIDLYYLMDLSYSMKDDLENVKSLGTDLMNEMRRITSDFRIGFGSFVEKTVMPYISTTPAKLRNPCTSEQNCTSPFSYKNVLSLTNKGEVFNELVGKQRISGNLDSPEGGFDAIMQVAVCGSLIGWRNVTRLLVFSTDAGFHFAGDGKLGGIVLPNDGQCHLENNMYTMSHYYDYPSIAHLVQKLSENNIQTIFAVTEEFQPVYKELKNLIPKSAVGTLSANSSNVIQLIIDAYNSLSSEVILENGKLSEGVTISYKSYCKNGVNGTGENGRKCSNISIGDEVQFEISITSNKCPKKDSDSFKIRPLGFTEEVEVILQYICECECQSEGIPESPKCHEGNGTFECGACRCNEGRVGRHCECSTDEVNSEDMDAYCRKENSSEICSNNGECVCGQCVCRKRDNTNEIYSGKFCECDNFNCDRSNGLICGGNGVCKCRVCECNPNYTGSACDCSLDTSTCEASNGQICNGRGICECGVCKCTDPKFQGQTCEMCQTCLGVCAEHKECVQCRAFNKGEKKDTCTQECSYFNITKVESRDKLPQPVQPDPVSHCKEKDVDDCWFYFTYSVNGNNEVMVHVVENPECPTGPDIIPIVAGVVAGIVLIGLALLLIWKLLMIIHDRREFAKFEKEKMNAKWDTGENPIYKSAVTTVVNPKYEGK
# T1 sequence (P08648 42-894 limits assumed): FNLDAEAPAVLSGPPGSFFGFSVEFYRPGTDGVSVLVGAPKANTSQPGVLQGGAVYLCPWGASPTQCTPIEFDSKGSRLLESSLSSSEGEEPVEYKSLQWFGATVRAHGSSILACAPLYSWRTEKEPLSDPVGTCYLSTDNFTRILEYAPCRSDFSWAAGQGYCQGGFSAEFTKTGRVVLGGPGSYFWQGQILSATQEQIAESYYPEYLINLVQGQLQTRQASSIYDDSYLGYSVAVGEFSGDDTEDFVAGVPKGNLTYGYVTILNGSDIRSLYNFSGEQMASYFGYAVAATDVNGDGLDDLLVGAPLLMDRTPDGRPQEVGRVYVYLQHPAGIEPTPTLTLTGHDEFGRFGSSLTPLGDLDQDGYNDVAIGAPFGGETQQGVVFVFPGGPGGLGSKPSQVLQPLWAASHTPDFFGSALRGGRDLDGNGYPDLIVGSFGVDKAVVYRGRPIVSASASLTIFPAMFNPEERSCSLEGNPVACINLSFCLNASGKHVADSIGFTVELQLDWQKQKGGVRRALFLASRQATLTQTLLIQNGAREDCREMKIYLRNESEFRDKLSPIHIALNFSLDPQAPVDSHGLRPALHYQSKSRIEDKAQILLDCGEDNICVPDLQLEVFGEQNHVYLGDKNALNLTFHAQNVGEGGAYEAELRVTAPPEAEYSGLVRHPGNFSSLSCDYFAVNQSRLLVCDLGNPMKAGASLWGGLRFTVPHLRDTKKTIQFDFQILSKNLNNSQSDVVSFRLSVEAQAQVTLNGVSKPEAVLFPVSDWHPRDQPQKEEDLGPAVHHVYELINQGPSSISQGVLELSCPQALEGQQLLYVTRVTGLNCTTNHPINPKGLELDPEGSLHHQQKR
# T1 sequence (P08648 895-1049 limits assumed): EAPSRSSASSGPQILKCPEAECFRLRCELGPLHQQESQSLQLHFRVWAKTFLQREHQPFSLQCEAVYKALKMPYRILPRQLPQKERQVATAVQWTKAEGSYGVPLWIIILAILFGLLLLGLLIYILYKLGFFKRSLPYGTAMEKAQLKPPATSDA
# T1 sequence (P05556 21-798): as the sequence (P05556 21-798) above
sequence,measurement,setting,value
LRRFSTAPFAFIDINDVINF [AXT107],Receptor phosphorylation and downstream signals of RTKs,[1],significantly decreases receptor phosphorylation and downstream signals
same,STAT3 phosphorylation,STAT3,also increased
same,Erk1/2 phosphorylation,Erk1/2,remained constant in all tested conditions
same,α5-β1 interaction by fraction after α5 immunoprecipitation,α5β1 integrin,interactions with β1 were only found in the soluble fractions
same,Binding to integrin α5β1,integrin α5β1,binds tightly
